# Measurements as given in patent US8952024B2, “Herbicidal pyrimidone derivatives” (E I du Pont de Nemours and Company, priority 2009, dated 2015).
# What was measured:
# Assay in all cases: Test C plant response
# Format in all cases: in vivo
# Settings in all cases: Postemergence, scale 0 to 100
# [1] = system: wild radish (Raphanus raphanistrum)
# Procedure, shortened: (§1)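 Efficacy is a visual percent-control score (0 none, 100 complete), judged against controls 14 days after application. Compounds go on in a non-phytotoxic solvent carrier with surfactant. A dash marks a missing result.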
# [2] = system: buckwheat (wild buckwheat, Polygonum convolvulus)
# Procedure, shortened: as §1
# [3] = system: winter wheat (Triticum aestivum)
# Procedure, shortened: as §1
# kochia (Kochia scoparia) = system: kochia (Kochia scoparia)
# Procedure, shortened: as §1
# [4] = system: lambsquarters (Chenopodium album)
# Procedure, shortened: as §1
# wild oat (Avena fatua) = system: wild oat (Avena fatua)
# Procedure, shortened: as §1
# [5] = system: bluegrass (annual bluegrass, Poa annua)
# Procedure, shortened: as §1
# [6] = system: spring barley (Hordeum vulgare)
# Procedure, shortened: as §1
# [7] = system: field violet (Viola arvensis)
# Procedure, shortened: as §1
# [8] = system: green foxtail (Setaria viridis)
# Procedure, shortened: as §1
# [9] = system: Russian thistle (Salsola iberica)
# Procedure, shortened: as §1
# [10] = system: blackgrass (Alopecurus myosuroides)
# Procedure, shortened: as §1
# [11] = system: pigweed (Amaranthus retroflexus)
# Procedure, shortened: as §1
# [12] = system: bromegrass (downy bromegrass, Bromus tectorum)
# Procedure, shortened: as §1
# [13] = system: deadnettle (henbit deadnettle, Lamium amplexicaule)
# Procedure, shortened: as §1
# [14] = system: windgrass (Apera spica-venti)
# Procedure, shortened: as §1
# [15] = system: spring wheat (Triticum aestivum)
# Procedure, shortened: as §1
# [16] = system: oilseed rape (Brassica napus)
# Procedure, shortened: as §1
# [17] = system: wild mustard (Sinapis arvensis)
# Procedure, shortened: as §1
structure (smiles),measurement,setting,value
Cc1ccccc1-n1c(-c2ccccc2)ncc(C(=O)C2=C(O)CCCC2=O)c1=O [Compound 12],"Plant response rating: Radish, Wild",[1]; 31 g ai/ha,80
same,"Plant response rating: Radish, Wild",[1]; 16 g ai/ha,60
same,"Plant response rating: Radish, Wild",[1]; 62 g ai/ha,90
same,"Plant response rating: Radish, Wild",[1]; 125 g ai/ha,90
same,"Plant response rating: Buckwheat, Wild",[2]; 31 g ai/ha,15
same,"Plant response rating: Buckwheat, Wild",[2]; 16 g ai/ha,10
same,"Plant response rating: Buckwheat, Wild",[2]; 62 g ai/ha,50
same,"Plant response rating: Buckwheat, Wild",[2]; 125 g ai/ha,50
same,"Plant response rating: Wheat, Winter",[3]; 31 g ai/ha,0
same,"Plant response rating: Wheat, Winter",[3]; 16 g ai/ha,0
same,"Plant response rating: Wheat, Winter",[3]; 62 g ai/ha,0
same,"Plant response rating: Wheat, Winter",[3]; 125 g ai/ha,10
same,Plant response rating: Kochia,kochia (Kochia scoparia); 31 g ai/ha,10
same,Plant response rating: Kochia,kochia (Kochia scoparia); 16 g ai/ha,0
same,Plant response rating: Kochia,kochia (Kochia scoparia); 62 g ai/ha,35
same,Plant response rating: Kochia,kochia (Kochia scoparia); 125 g ai/ha,75
same,Plant response rating: Lambsquarters,[4]; 31 g ai/ha,80
same,Plant response rating: Lambsquarters,[4]; 16 g ai/ha,70
same,Plant response rating: Lambsquarters,[4]; 62 g ai/ha,80
same,Plant response rating: Lambsquarters,[4]; 125 g ai/ha,95
same,"Plant response rating: Oat, Wild",wild oat (Avena fatua); 31 g ai/ha,15
same,"Plant response rating: Oat, Wild",wild oat (Avena fatua); 16 g ai/ha,0
same,"Plant response rating: Oat, Wild",wild oat (Avena fatua); 62 g ai/ha,15
same,"Plant response rating: Oat, Wild",wild oat (Avena fatua); 125 g ai/ha,15
same,Plant response rating: Bluegrass,[5]; 31 g ai/ha,20
same,Plant response rating: Bluegrass,[5]; 16 g ai/ha,10
same,Plant response rating: Bluegrass,[5]; 62 g ai/ha,30
same,Plant response rating: Bluegrass,[5]; 125 g ai/ha,40
same,"Plant response rating: Barley, Spring",[6]; 31 g ai/ha,0
same,"Plant response rating: Barley, Spring",[6]; 16 g ai/ha,0
same,"Plant response rating: Barley, Spring",[6]; 62 g ai/ha,0
same,"Plant response rating: Barley, Spring",[6]; 125 g ai/ha,0
same,Plant response rating: Field Violet,[7]; 31 g ai/ha,35
same,Plant response rating: Field Violet,[7]; 16 g ai/ha,35
same,Plant response rating: Field Violet,[7]; 62 g ai/ha,40
same,Plant response rating: Field Violet,[7]; 125 g ai/ha,40
same,"Plant response rating: Foxtail, Green",[8]; 31 g ai/ha,60
same,"Plant response rating: Foxtail, Green",[8]; 16 g ai/ha,50
same,"Plant response rating: Foxtail, Green",[8]; 62 g ai/ha,80
same,"Plant response rating: Foxtail, Green",[8]; 125 g ai/ha,90
same,Plant response rating: Russian Thistle,[9]; 31 g ai/ha,60
same,Plant response rating: Russian Thistle,[9]; 16 g ai/ha,60
same,Plant response rating: Russian Thistle,[9]; 62 g ai/ha,60
same,Plant response rating: Russian Thistle,[9]; 125 g ai/ha,70
same,Plant response rating: Blackgrass,[10]; 31 g ai/ha,20
same,Plant response rating: Blackgrass,[10]; 16 g ai/ha,0
same,Plant response rating: Blackgrass,[10]; 62 g ai/ha,30
same,Plant response rating: Blackgrass,[10]; 125 g ai/ha,40
same,Plant response rating: Pigweed,[11]; 31 g ai/ha,65
same,Plant response rating: Pigweed,[11]; 16 g ai/ha,65
same,Plant response rating: Pigweed,[11]; 62 g ai/ha,75
same,Plant response rating: Pigweed,[11]; 125 g ai/ha,75
same,"Plant response rating: Bromegrass, Downy",[12]; 31 g ai/ha,10
same,"Plant response rating: Bromegrass, Downy",[12]; 16 g ai/ha,0
same,"Plant response rating: Bromegrass, Downy",[12]; 62 g ai/ha,15
same,"Plant response rating: Bromegrass, Downy",[12]; 125 g ai/ha,20
same,Plant response rating: Deadnettle,[13]; 31 g ai/ha,100
same,Plant response rating: Deadnettle,[13]; 16 g ai/ha,100
same,Plant response rating: Deadnettle,[13]; 62 g ai/ha,100
same,Plant response rating: Deadnettle,[13]; 125 g ai/ha,100
same,Plant response rating: Windgrass,[14]; 31 g ai/ha,20
same,Plant response rating: Windgrass,[14]; 16 g ai/ha,5
same,Plant response rating: Windgrass,[14]; 125 g ai/ha,50
same,"Plant response rating: Wheat, Spring",[15]; 31 g ai/ha,0
same,"Plant response rating: Wheat, Spring",[15]; 16 g ai/ha,0
same,"Plant response rating: Wheat, Spring",[15]; 62 g ai/ha,0
same,"Plant response rating: Wheat, Spring",[15]; 125 g ai/ha,0
same,Plant response rating: Oilseed Rape,[16]; 31 g ai/ha,70
same,Plant response rating: Oilseed Rape,[16]; 16 g ai/ha,50
same,Plant response rating: Oilseed Rape,[16]; 62 g ai/ha,80
same,Plant response rating: Oilseed Rape,[16]; 125 g ai/ha,95
same,"Plant response rating: Mustard, Wild",[17]; 31 g ai/ha,95
same,"Plant response rating: Mustard, Wild",[17]; 16 g ai/ha,80
same,"Plant response rating: Mustard, Wild",[17]; 62 g ai/ha,95
same,"Plant response rating: Mustard, Wild",[17]; 125 g ai/ha,95
